How the values were obtained:
human Factor Xa = biological target: T1, human Factor Xa (Homo sapiens, UniProt P00742); assay: Factor Xa assay (chromogenic, Ki); format: biochemical; conditions: 3.3 nM Xa, S-2222 0.5 mM; read-out: binding affinity to serine proteases: Xa
T1 construct: This complex converts factor X to Xa
Description: Factor Xa, Thrombin, and Plasma Kallikrein Assays
These procedures are used to determine the constant of inhibition (Ki) for a sample compound of the invention.
Procedure • 1. Add 50 μL sample to each well. • 2. Add 50 μL appropriately diluted coagulation factor to each well. • 3. Incubate for 5 minutes at room temperature with gentle agitation. • 4. Add 50 μL appropriately diluted substrate to each well. • 5. Agitate plate for 20-25 sec. • 6. Monitor absorbance at 405 nm every 10 sec for a total of 5 minutes at room temperature. • 7. Calculate Vmax over 10 points.

[1] = biological target: tissue factor/factor VIIa (Homo sapiens, UniProt P08709); assay: Tissue Factor/Factor VIIa antagonist assay (chromogenic, Ki); format: biochemical; conditions: 10 nM VIIa, 30 nM TF, Chromozym-tPA 1.33 mM; read-out: binding affinity to serine proteases: VIIa
Description: Tissue Factor/Factor VIIa Antagonist Assay
This procedure is used to determine the constant of inhibition (Ki) for a sample compound of the invention.
Procedure • 1. Prepare a solution of 2 μg/mL (90 nM) tissue factor and 1.5 μg/mL (30 nM) factor VIIa in assay buffer with CaCl2. • 2. Incubate for 15 minutes at room temperature. • 3. Add 50 μL sample to each well. • 4. Add 50 μL tissue factor/factor VIIa solution to each well. • 5. Incubate for 15 minutes at room temperature with gentle agitation. • 6. Add 50 μL substrate to each well. • 7. Agitate plate for 20-25 sec. • 8. Monitor absorbance at 405 nm every 10 see for a total of 5 minutes at room temperature. • 9. Calculate Vmax over 10 points.

Chain of tissue factor/factor VIIa (P08709 213-466 limits assumed): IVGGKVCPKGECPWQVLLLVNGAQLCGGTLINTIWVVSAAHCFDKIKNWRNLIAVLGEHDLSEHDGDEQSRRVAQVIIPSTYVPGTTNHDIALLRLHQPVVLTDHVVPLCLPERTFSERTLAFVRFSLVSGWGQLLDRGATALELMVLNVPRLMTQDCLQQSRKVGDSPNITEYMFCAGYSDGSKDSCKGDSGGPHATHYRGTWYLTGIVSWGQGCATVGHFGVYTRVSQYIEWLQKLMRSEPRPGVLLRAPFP
Chain of tissue factor/factor VIIa (P08709 61-212 limits assumed): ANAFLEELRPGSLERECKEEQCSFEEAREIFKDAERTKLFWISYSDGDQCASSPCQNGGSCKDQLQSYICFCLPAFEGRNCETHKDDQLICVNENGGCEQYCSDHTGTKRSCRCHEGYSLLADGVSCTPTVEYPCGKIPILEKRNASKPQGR
Chain of tissue factor/factor VIIa (P13726 33-251 partner limits assumed): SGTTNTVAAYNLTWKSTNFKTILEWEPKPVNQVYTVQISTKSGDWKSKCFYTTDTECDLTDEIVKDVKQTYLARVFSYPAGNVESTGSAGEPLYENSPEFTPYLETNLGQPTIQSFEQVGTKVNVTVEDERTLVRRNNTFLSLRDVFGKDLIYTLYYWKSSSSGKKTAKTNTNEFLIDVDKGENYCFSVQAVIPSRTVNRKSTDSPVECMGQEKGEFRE
T1 sequence (P00742 235-488 limits assumed): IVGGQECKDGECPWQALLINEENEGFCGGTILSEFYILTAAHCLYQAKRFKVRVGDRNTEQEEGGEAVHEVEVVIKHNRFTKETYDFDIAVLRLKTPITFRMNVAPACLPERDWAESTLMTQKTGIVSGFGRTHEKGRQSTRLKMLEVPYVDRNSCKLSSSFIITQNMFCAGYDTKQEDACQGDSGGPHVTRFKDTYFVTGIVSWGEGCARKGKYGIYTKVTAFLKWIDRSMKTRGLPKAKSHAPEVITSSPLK
T1 sequence (P00742 41-179 limits assumed): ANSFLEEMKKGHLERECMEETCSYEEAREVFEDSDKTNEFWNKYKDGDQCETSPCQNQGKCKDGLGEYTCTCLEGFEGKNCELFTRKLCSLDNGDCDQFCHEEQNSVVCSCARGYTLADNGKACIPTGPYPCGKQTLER

Row | Structure (SMILES) | Ki (human Factor Xa) [µM] | Ki [1] [µM]
1 | N=C(N)c1ccc(NC(=O)[C@@H]2C[C@@H](Oc3cccc(C(=N)N)c3)CN2)cc1 [compound 2] | 1.15 | 64
2 | COc1ccc(CNC(=O)[C@@H]2C[C@@H](Oc3cccc(C(=N)N)c3)CN2)cc1 [compound 8] | 3.32 | ≥ 390
3 | Cc1ccc(CNC(=O)[C@@H]2C[C@@H](Oc3cccc(C(=N)N)c3)CN2)cc1 [compound 9] | 5.13 | ≥ 390
4 | N=C(N)c1cccc(O[C@H]2CN[C@H](C(=O)N3CCc4ccccc4C3)C2)c1 [compound 10] | 5.35 | 98.5
5 | N=C(N)c1cccc(O[C@H]2CN[C@H](C(=O)NCCC3CNc4ccccc43)C2)c1 (stereo partly drawn) [compound 12] | 6.02 | 156
6 | Cc1cccc(CNC(=O)[C@@H]2C[C@@H](Oc3cccc(C(=N)N)c3)CN2)c1 [compound 13] | 6.12 | ≥ 390
7 | CN1CCN(C(=O)[C@@H]2C[C@@H](Oc3cccc(C(=N)N)c3)CN2)CC1 [compound 18] | 8.87 | 273
8 | N=C(N)c1cccc(O[C@H]2CN[C@H](C(=O)NCc3cccc(Cl)c3)C2)c1 [compound 19] | 9 | 312
9 | N=C(N)c1cccc(O[C@H]2CN[C@H](C(=O)NCc3ccc4ccccc4c3)C2)c1 [compound 20] | 9.07 | 234
10 | COc1ccc(CNC(=O)[C@@H]2C[C@@H](Oc3cccc(C(=N)N)c3)CN2C(C)=O)cc1 [compound 23] | 12 | > 195
11 | N=C(N)c1cccc(O[C@H]2CN[C@H](C(=O)Nc3ccc(C(F)(F)F)cc3)C2)c1 [compound 24] | 12.9 | 312
12 | N=C(N)c1cccc(O[C@H]2CN[C@H](C(=O)NC3CCc4ccccc43)C2)c1 (stereo partly drawn) [compound 25] | 13.3 | 156
13 | C[C@@H](NC(=O)[C@@H]1C[C@@H](Oc2cccc(C(=N)N)c2)CN1)c1ccccc1 [compound 26] |  | 142
14 | N=C(N)c1cccc(O[C@H]2CN[C@H](C(=O)Nc3ccc(-c4ccccc4)cc3)C2)c1 [compound 28] | 14.1 | ≥ 390
15 | N=C(N)c1cccc(O[C@H]2CN[C@H](C(=O)Nc3ccc4ccccc4c3)C2)c1 [compound 29] | 14.2 | 117
16 | N=C(N)c1cccc(O[C@H]2CN[C@H](C(=O)NCc3ccc(N)cc3)C2)c1 [compound 30] | 15.2 | 312
17 | C=CCNC(=O)[C@@H]1C[C@@H](Oc2cccc(C(=N)N)c2)CN1 [compound 31] | 15.2 | ≥ 390
18 | N=C(N)c1cccc(O[C@H]2CN[C@H](C(=O)Nc3cccc4ccccc34)C2)c1 [compound 33] | 15.5 | 30.5
19 | N#Cc1ccc(NC(=O)[C@@H]2C[C@@H](Oc3cccc(C(=N)N)c3)CN2)cc1 [compound 34] | 16.8 | 156
20 | N=C(N)c1cccc(O[C@H]2CN[C@H](C(=O)N3CCCCC3)C2)c1 [compound 35] | 19.7 | 94

Row | Structure (SMILES) | Ki (human Factor Xa) [µM] | Ki [1] [µM]
21 | N=C(N)c1cccc(O[C@H]2CN[C@H](C(=O)NCc3ccccc3)C2)c1 [compound 37] | 21.7 | 312
22 | N=C(N)c1cccc(O[C@H]2CN[C@H](C(=O)N3CCCC3)C2)c1 [compound 38] | 21.7 | 129
23 | Cc1ccccc1CNC(=O)[C@@H]1C[C@@H](Oc2cccc(C(=N)N)c2)CN1 [compound 39] | 22.8 | ≥ 390
24 | CN(C(=O)[C@@H]1C[C@@H](Oc2cccc(C(=N)N)c2)CN1)c1ccccc1 [compound 40] | 23 | 156
25 | N=C(N)c1cccc(O[C@H]2CN[C@H](C(=O)NCCc3ccccc3)C2)c1 [compound 41] | 24.3 | 187
26 | N#Cc1ccccc1NC(=O)[C@@H]1C[C@@H](Oc2cccc(C(=N)N)c2)CN1 [compound 42] | 24.4 | 89
27 | N=C(N)c1cccc(O[C@H]2CN[C@H](C(=O)Nc3ccccc3C(F)(F)F)C2)c1 [compound 43] | 24.5 | 156
28 | Cc1ccccc1NC(=O)[C@@H]1C[C@@H](Oc2cccc(C(=N)N)c2)CN1 [compound 44] | 25.9 | 117
29 | N=C(N)c1cccc(O[C@H]2CN[C@H](C(=O)Nc3cccc(C(F)(F)F)c3)C2)c1 [compound 45] | 26.3 | 150
30 | C[C@H](NC(=O)[C@@H]1C[C@@H](Oc2cccc(C(=N)N)c2)CN1)c1ccccc1 [compound 46] | 27 | 156
31 | N=C(N)c1cccc(O[C@H]2CN[C@H](C(=O)NCc3ccccn3)C2)c1 [compound 47] | 31.4 | ≥ 390
32 | COc1ccc(CNC(=O)[C@@H]2C[C@@H](Oc3cccc(C(=N)N)c3)CN2S(C)(=O)=O)cc1 [compound 48] | 33.6 | > 195
33 | CCCNC(=O)[C@@H]1C[C@@H](Oc2cccc(C(=N)N)c2)CN1 [compound 49] | 33.8 | ≥ 390
34 | COc1ccc(CNC(=O)[C@@H]2C[C@@H](Oc3cccc(C(=N)N)c3)CN2S(=O)(=O)c2ccccc2)cc1 [compound 50] | 34.1 | > 195
35 | N=C(N)c1cccc(O[C@H]2CN[C@H](C(=O)NC3CCCCC3)C2)c1 [compound 51] |  | 234
36 | N=C(N)c1cccc(O[C@H]2CN[C@H](C(=O)NCCc3ccccc3)C2)c1 [compound 53] | 37.1 | 133
37 | CC(C)CCNC(=O)[C@@H]1C[C@@H](Oc2cccc(C(=N)N)c2)CN1 [compound 54] | 38 | ≥ 390
38 | N=C(N)c1cccc(O[C@H]2CN[C@H](C(=O)N[C@@H](Cc3ccccc3)C(=O)O)C2)c1 [compound 55] | 44.9 | 273
39 | COc1ccc(CNC(=O)[C@@H]2C[C@@H](Oc3cccc(C(=N)N)c3)CN2C(=O)c2ccccc2)cc1 [compound 56] | 47.3 | > 195

Continued, values first:

Row | Ki (human Factor Xa) [µM] | Ki [1] [µM] | Structure (SMILES)
40 | 49.3 | 312 | N=C(N)c1cccc(O[C@H]2CN[C@H](C(=O)N3CCC(O)CC3)C2)c1 [compound 57]
41 | 50.7 | ≥ 390 | N=C(N)c1cccc(O[C@H]2CN[C@H](C(=O)NCc3cccnc3)C2)c1 [compound 58]
42 | 59.8 | ≥ 390 | CC(C)NC(=O)[C@@H]1C[C@@H](Oc2cccc(C(=N)N)c2)CN1 [compound 59]
43 | 62 |  | N=C(N)c1cccc(O[C@H]2CN[C@H](C(=O)N3CCCC(C(N)=O)C3)C2)c1 (stereo partly drawn) [compound 61]
44 | 64.6 | > 390 | N=C(N)c1cccc(O[C@H]2CN[C@H](C(=O)N3CCCCC3CCO)C2)c1 (stereo partly drawn) [compound 62]
45 | 70 | ≥ 390 | N=C(N)c1cccc(O[C@H]2CN[C@H](C(=O)N3CCNCC3)C2)c1 [compound 63]
46 | 70.1 | 273 | COc1ccc(NC(=O)[C@@H]2C[C@@H](Oc3cccc(C(=N)N)c3)CN2)cc1 [compound 64]
47 | 70.1 | 30.7 | N=C(N)c1cccc(O[C@H]2CN[C@H](C(=O)Nc3ccc(F)cc3)C2)c1 [compound 65]
48 | 70.1 | 78 | N=C(N)c1cccc(O[C@H]2CN[C@H](C(N)=O)C2)c1 [compound 66]
49 | 87.7 | ≥ 390 | N=C(N)c1cccc(O[C@H]2CN[C@H](C(=O)N3CCCC(C(=O)O)C3)C2)c1 (stereo partly drawn) [compound 67]
50 | 89.6 | ≥ 390 | N=C(N)c1cccc(O[C@H]2CN[C@H](C(=O)N3CCCCC3CO)C2)c1 (stereo partly drawn) [compound 68]
51 | 90.2 | 117 | N=C(N)c1cccc(O[C@H]2CN[C@H](C(=O)N3CCCC(CO)C3)C2)c1 (stereo partly drawn) [compound 69]
52 | 105 | 156 | N=C(N)c1cccc(O[C@@H]2C[C@@H](C(=O)O)N(Cc3ccccc3)C2)c1 [compound 70]
53 | 105 | ≥ 390 | N=C(N)c1cccc(O[C@H]2CN[C@H](C(=O)NCc3ccncc3)C2)c1 [compound 71]
54 | 132 | ≥ 390 | CC(C)[C@@H](NC(=O)[C@@H]1C[C@@H](Oc2cccc(C(=N)N)c2)CN1)C(=O)O [compound 72]
55 | 140 | ≥ 390 | N=C(N)c1cccc(O[C@H]2CN[C@H](C(=O)N[C@@H](CCC(=O)O)C(=O)O)C2)c1 [compound 73]
56 | 140 | > 195 | C=CCOC(=O)[C@@H]1C[C@@H](Oc2cccc(C(=N)N)c2)CN1S(=O)(=O)c1ccccc1 [compound 74]
57 | 140 | ≥ 390 | C[C@H](NC(=O)[C@@H]1C[C@@H](Oc2cccc(C(=N)N)c2)CN1)C(=O)O [compound 75]
58 |  | > 390 | N=C(N)c1cccc(O[C@H]2CN[C@H](C(=O)NCC(=O)O)C2)c1 [compound 77]
59 |  | > 195 | C=CCOC(=O)[C@@H]1C[C@@H](Oc2cccc(C(=N)N)c2)CN1S(C)(=O)=O [compound 78]
60 | > 175 | > 195 | CS(=O)(=O)N1C[C@H](Oc2cccc(C(=N)N)c2)C[C@H]1C(=O)O [compound 81]
61 | > 175 | > 195 | N=C(N)c1cccc(O[C@@H]2C[C@@H](C(=O)O)N(S(=O)(=O)c3ccccc3)C2)c1 [compound 82]

— patent US6838479B2, “Amidine inhibitors of serine proteases” (Genentech, Inc., priority 2000, dated 2005)
